# Measurements published in patent US10582715B2, “Powder flavour composition” (Givaudan S.A., priority 2012, dated 2020).
# What was measured:
# [1] = Tasting of snack product (fried potato base, 35% fat, cheese seasoning) with added compound
# Excerpt: A snack product consisting of a fried potato base, containing 35% fat and flavored with cheese seasoning containing salt, MSG, dairy, organic acids, sugars, and a flavour formulation.
# [2] = Tasting of air expanded base (3% fat, cheese seasoning) with added compound
# Excerpt: An air expanded base (Rice, wheat, Tapioca, potato, salt, sugar, modified starch), containing 3% fat and flavored with cheese seasoning containing salt, MSG, dairy, organic acids, sugars and flavor.
# [3] = Mango flavoured still beverage containing different levels of juice, evaluated by expert tasters
# Protocol: In a Mango flavoured still beverage, sweetened with 8% sucrose and containing 0.1% citric acid and 1%, 4% and 6% clear mango juice flavoured with a proprietary Mango flavour @ 0.05% , C18:2-gaba and C18:2-Pro were added, as such (separate) and in combination.
# All samples were evaluated by expert tasters. Tasters were asked to describe the samples focusing on authentic taste, juicy mouthfeel, enhancement, richness, juiciness, long lastingness, salivation, sweetness.
# In a Mango flavoured still beverage, sweetened with 8% sucrose & containing 0.1% citric acid and 1% clear mango juice flavoured with proprietary Mango flavour @ 0.05%, C18:2-gaba and C18:2-Pro were added, as such (separate) and in combination.
# Base is water, 8% sucrose, 0.1% citric acid, 1% clear mango juice (very low juice %), flavoured with Mango flavor, dosed at 0.05%
# Base: sweet, fruity, mango, thin
# In a Mango flavoured still beverage, sweetened with 8% sucrose & containing 0.1% citric acid and 4% clear mango juice flavoured with Mango flavour @ 0.05% , C18:2-gaba and C18:2-Pro were added, as such (separate) and in combination.
# Base is water, 8% sucrose, 0.1% citric acid, 4% clear mango juice (30% reduced juice), flavoured with Mango flavor, dosed at 0.05%
# Base: sweet, fruity, mango, some low mouthfeel
# In a Mango-flavoured still beverage, sweetened with 8% sucrose & containing 0.1% citric acid and 6% clear mango juice flavoured with Mango flavour @ 0.05%, C18:2-gaba and C18:2-Pro were added, as such (separate) and in combination.
# Base is water, 8% sucrose, 0.1% citric acid, 6% clear mango juice (full juice), flavoured with Mango flavor, dosed at 0.05%.
# Base: Sweet, fruity mango, full mouthfeel
# [4] = Test on orange flavoured Tang powdered soft drink, evaluated by expert tasters
# Protocol: In an orange flavoured Tang powdered soft drink (market product) sweetened with sucrose plus high intensity sweetener and containing citric acid, C18:2-gaba and C18:2-pro were tested.
# All samples were evaluated by expert tasters. Tasters were asked to describe the samples focusing on authentic taste, mouthfeel & body, enhancement, richness, juiciness, long lastingness, salivation, sweetness, masking off notes of high intensity sweetener
# Base is Orange Flavoured Tang
# Base: sweet, orange, licorice, and lingering high intensity sweetener offnotes, bitter, thin
# [5] = Test in 3 in 1 Coffee beverage, evaluated by expert tasters; conditions: sucrose 13.2%, creamer 2.1% fat, compound at 1 ppm, base: coffee, sweet, mild dairy
# Protocol: In a 3 in 1 Coffee beverage from Nestle (market product) sweetened with sucrose 13.2% and containing creamer (2.1% fat) C18:2-gaba was added.
# Samples were evaluated by expert tasters. Tasters were asked to describe the samples focusing on authentic taste, mouthfeel, fullness, salivation, sweetness, juiciness, richness, long lastingness and fattiness.
# Base is 3-in-1 Coffee Beverage (Market Product) Sweetened with Sucrose and Containing Creamer with Fat
# Base: coffee, sweet, mild dairy
structure (smiles),measurement,setting,value
CCCCCCCC/C=C\CCCCCCCC(=O)N[C@@H](CCSC)C(=O)O [C18:1 met],tasting results,[1]; compound at 0.25 ppm,"Salty, aged cheese, succulent"
same,tasting results,[1]; compound at 0.5 ppm,"Increased cheese, creamy, salty and succulent"
"CCCCCCCC/C=C\CCCCCCCC(=O)NC1(C(=O)O)CC1 [C18:1-ACCA, N-oleoyl 1-amino-cyclopropyl carboxylic acid]",tasting results,[1]; compound at 0.5 ppm,Increased salty
same,tasting results,[1]; compound at 1 ppm,"Increased Umami, salty"
same,tasting results,[2]; compound at 0.5 ppm,Increased salty
same,tasting results,[2]; compound at 1 ppm,"Increased Umami, salty"
CCCCC/C=C\C/C=C\CCCCCCCC(=O)N1CCC[C@H]1C(=O)O [C18:2-Pro],taste description by expert tasters,"[3]; 1% clear mango juice, compound at 0.5 ppm","more sweet, sugar-like, very juicy and long lasting sweet, salivating"
same,taste description by expert tasters,"[3]; 4% clear mango juice, compound at 0.5 ppm","more sweet, sugar-like, very juicy and long lasting sweet, salivating"
same,taste description by expert tasters,"[3]; 6% clear mango juice (full juice), compound at 0.5 ppm","more sweet, sugar-like, very juicy and long lasting sweet, salivating, syrupy"
same,masking off notes of high intensity sweetener,[4]; compound at 1 ppm,the off-notes of the high intensity sweetener were suppressed
same,taste description by expert tasters,[4]; compound at 1 ppm,"very fresh, enhances sweet juicy orange notes, characteristic of authentic fresh orange fruit"
CCCCC/C=C\C/C=C\CCCCCCCC(=O)NCCCC(=O)O [C18:2-gaba],taste description by expert tasters,"[3]; 1% clear mango juice, compound at 1 ppm","fatty skin-like, very juicy, authentic mango, much more mouthfeel, long lasting mango taste, mouthfeel is close to the full juice product"
same,taste description by expert tasters,"[3]; 4% clear mango juice, compound at 1 ppm","fatty skin-like, very juicy, authentic mango, long lasting mango taste, more mouthfeel than the full juice product"
same,taste description by expert tasters,"[3]; 6% clear mango juice (full juice), compound at 1 ppm","fatty skin-like, very thick juicy, authentic mango, long lasting mango taste, rich"
same,masking off notes of high intensity sweetener,[4]; compound at 0.5 ppm,the off-notes of the high intensity sweetener were suppressed
same,taste description by expert tasters,[4]; compound at 0.5 ppm,"enhances sweet juicy orange notes, enhanced mouthfeel"
same,tasting results,[1]; compound at 0.5 ppm,"increased dairy, cheesy"
same,tasting results,[1]; compound at 1 ppm,"Fatty full, cheesy, cheese crust, long lasting"
same,taste description by expert tasters,[5],"very nice mouthfeel effect, creamy as if coffee creamer is added, more sweet"
same,tasting results,[2]; compound at 0.5 ppm,"Increased dairy, cheese"
same,tasting results,[2]; compound at 1 ppm,"Fatty full, cheesy, cheese crust, long lasting, cover base"
